Laboratory results reported in patent US8784929B2 (priority 2007, dated 2014).

What was measured:
αHL-WT [1] = target: T1, αHL-WT (Staphylococcus aureus, UniProt P09616); format: biochemical, staphylococcal; conditions: pH 7
αHL-WT [2] = target: T1, αHL-WT; conditions: cited from earlier work

T1 sequence (P09616 27-319 limits assumed): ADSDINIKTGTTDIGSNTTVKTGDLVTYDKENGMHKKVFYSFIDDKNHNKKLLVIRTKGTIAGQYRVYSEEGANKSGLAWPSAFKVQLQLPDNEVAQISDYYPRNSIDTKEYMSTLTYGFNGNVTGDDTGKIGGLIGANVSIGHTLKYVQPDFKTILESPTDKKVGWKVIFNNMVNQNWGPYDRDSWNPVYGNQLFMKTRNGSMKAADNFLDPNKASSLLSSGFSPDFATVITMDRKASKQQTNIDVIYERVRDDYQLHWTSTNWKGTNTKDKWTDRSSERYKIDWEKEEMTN

Row | SMILES | current block on binding to αHL-WT (αHL-WT [1]) | binding of β-cyclodextrin (in words) (αHL-WT [2])
1 | COC[C@H]1O[C@@H]2O[C@H]3[C@H](OC)[C@@H](OC)[C@@H](O[C@H]4[C@H](OC)[C@@H](OC)[C@@H](O[C@H]5[C@H](OC)[C@@H](OC)[C@@H](O[C@H]6[C@H](OC)[C@@H](OC)[C@@H](O[C@H]7[C@H](OC)[C@@H](OC)[C@@H](O[C@H]8[C@H](OC)[C@@H](OC)[C@@H](O[C@H]1[C@H](OC)[C@H]2OC)O[C@@H]8COC)O[C@@H]7COC)O[C@@H]6COC)O[C@@H]5COC)O[C@@H]4COC)O[C@@H]3COC [hβCD, heptakis(2,3,6-tri-O-methyl)-β-cyclodextrin] | 95% | 
2 | OC[C@H]1O[C@@H]2O[C@H]3[C@H](O)[C@@H](O)[C@@H](O[C@H]4[C@H](O)[C@@H](O)[C@@H](O[C@H]5[C@H](O)[C@@H](O)[C@@H](O[C@H]6[C@H](O)[C@@H](O)[C@@H](O[C@H]7[C@H](O)[C@@H](O)[C@@H](O[C@H]8[C@H](O)[C@@H](O)[C@@H](O[C@H]9[C@H](O)[C@@H](O)[C@@H](O[C@H]1[C@H](O)[C@H]2O)O[C@@H]9CO)O[C@@H]8CO)O[C@@H]7CO)O[C@@H]6CO)O[C@@H]5CO)O[C@@H]4CO)O[C@@H]3CO [γCD, γ-cyclodextrin] | 68% | 
3 | OC[C@H]1O[C@@H]2O[C@H]3[C@H](O)[C@@H](O)[C@@H](O[C@H]4[C@H](O)[C@@H](O)[C@@H](O[C@H]5[C@H](O)[C@@H](O)[C@@H](O[C@H]6[C@H](O)[C@@H](O)[C@@H](O[C@H]7[C@H](O)[C@@H](O)[C@@H](O[C@H]8[C@H](O)[C@@H](O)[C@@H](O[C@H]1[C@H](O)[C@H]2O)O[C@@H]8CO)O[C@@H]7CO)O[C@@H]6CO)O[C@@H]5CO)O[C@@H]4CO)O[C@@H]3CO [β-cyclodextrin] |  | does not bind β-cyclodextrin strongly
